Measurements published in patent US20210260199A1, “NOVEL NARINGENIN/LIPOIC ACID CONJUGATE COMPOUND AND USE THEREOF” (priority 2018, published 2021).

How the values were obtained:
mushroom tyrosinase = assay: Inhibitory effect on tyrosinase; format: biochemical; settings: L-tyrosine substrate, pH 6.5, 37° C., 30 minutes; read-out: Inhibition of tyrosinase
Experimental: The inhibitory effect on tyrosinase related to skin whitening and melanin formation was measured using the following experimental method. 10 μL of each sample solution at a different concentration and 20 μL of mushroom tyrosinase in a phosphate buffer (pH 6.5) were added to a 96-well microplate and added with 170 μL of a mixed solution in which a 1 mM L-tyrosine solution, a 50 mM potassium phosphate buffer (pH 6.5) and distilled water were contained in a ratio of 10:10:9. Samples dissolved in DMSO were diluted 30 times with distilled water and used. After incubation at 37° C. for 30 minutes, the absorbance of the reaction solution was measured at 490 nm using a GENios microplate reader (Tecan Austria GmbH, Austria). The inhibition degree of tyrosinase by the addition of the sample was expressed as a 50% inhibition rate (IC50).

[1] = Antioxidant capacity, radical scavenging ability by DPPH (Blois method); settings: absorbance at 517 nm
Experimental: The antioxidant capacity of the novel compounds was measured by using a Blois method of measuring radical scavenging ability by DPPH which was widely known. A solution of DPPH by concentration was prepared in ethanol, and the initial absorbance was measured at 517 nm, and the absorbance over time was measured by adding a solution of the novel compound and the DPPH solution. The antioxidant capacity was expressed in % and an IC50 value was obtained using a calculation program.

[2] = system: cortex culture containing neurons and glia; assay: Total antioxidant capacity assay after OGD and I/R (Antioxidant Assay Kit); format: cell-based, rat; settings: FIG. 2
Experimental: Several groups of plates were subjected to the OGD (oxygen-glucose deprivation) and I/R (ischemia-reperfusion), and the total antioxidant capacity was measured using a general commercial instrument (Antioxidant Assay Kit, Sigma-Aldrich). The average value of the three experiments was obtained and the antioxidant capacity was expressed in […].

[3] = system: cortex culture containing neurons and glia; assay: Brain cell protection in apoptosis induced by oxygen-glucose deprivation (OGD)/reoxygenation, LDH release; format: cell-based, rat; settings: for protective effect on brain cells (apoptosis, % LDH release): OGD then 24 hours normoxic, 6 concentrations, FIG. 1
Experimental: A […] cortex culture medium containing neurons and glia was obtained from fetal rats during the gestation period of 17 to 18 days. That is, an embryonic tissue was extracted from a pregnant Sprague-Dawley and transferred to a Hanks Balanced Salt solution (Gibco) cooled with ice. The cortical brain tissue was sterile and thinly dissected and stored in cold HBSS before digestion with 0.0125% trypsin. The isolated cells were placed in a 96 well plate coated with poly-L-lysine (1 mg/ml, Sigma-Aldrich) in a Dulbecco's modified eagle medium (Gibco) containing 10% iron-supplemented fetal calf serum (Hyclone) and 1% antibiotic/antimycotic (Gibco) at 37° C. at a seeding density of 50,000 cells/well. Then, after attaching the culture medium overnight in a 37° C. incubator containing 5% CO2 and atmospheric oxygen, at the next day, the medium was replaced with a warm Neurobasal A medium (Gibco) containing 0.5 mmol/L of L-glutamine (Gibco) and supplemented with 1% B27, N2 and antibiotics/antimycotic (Gibco). In the culture for 14 to 16 days, half of the medium was changed every 4 days. After 14 days of cell culture, the culture medium was replaced with a vehicle (0.1% DMSO or EtOH) or an oxygen-free-glucose Neurobasal A containing an experimental substance (RA1, naringenin or lipoic acid) at 6 concentrations. After oxygen-glucose deprivation (OGD), the same volume of Neurobasal A with the same novel substance concentration was added and transferred to a normoxic condition (5% CO2 and atmospheric oxygen) state for 24 hours. Cellular activity was evaluated by measuring LDH release of damaged cells. The effects of lipoic acid, naringenin, and the novel substance RA1 on apoptosis (% LDH release) following ischemia/reoxygenation-reperfusion (I/R) were performed in the in vitro cell culture.

cerebral infarction site = assay: Transient middle cerebral artery occlusion (t-MCAO), administration immediately before artery occlusion; format: in vivo, Sprague-Dawley rats; settings: for size of the cerebral infarction site compared to the vehicle: 30 min occlusion, 5 h 30 min reperfusion, FIG. 3(A); for size of the cerebral infarction site, dependence on concentration: FIG. 3(B) and (C)
Experimental: As a research model for cerebral infarction, transient middle cerebral artery occlusion (t-MCAO) in animals (rats) was used to examine the infarct size of the cerebral infarction site and the degree of its protective action. First, in an animal model in which the middle cerebral artery of Sprague-Dawley rats (300 to 350 g; Charles River, Montreal, PQ, CAN) was closed for 30 minutes to create a cerebral infarction and then reperfused for 5 hours and 30 minutes (t-MCAO), naringenin and RA1 (VANL-100) were administered immediately before artery occlusion and compared with a case of administration of a vehicle.

Structure (SMILES)	IC50 (mushroom tyrosinase)	Antioxidant capacity (%) [1]	further results
O=C(CCCCC1CCSS1)OCCOCCOCCOc1cc(O)c2c(c1)OC(c1ccc(O)cc1)CC2=O (stereo not shown) [RA6, 2-(2-(2-((5-hydroxy-2-(4-hydroxyphenyl)-4-oxochroman-7-yl)oxy)ethoxy)ethoxy)ethyl 5-(1,2-dithiolan-3-yl)pentanoate]	350 µM	14.6%	–
O=C(CCCCC1CCSS1)Oc1ccc(C2CC(=O)c3c(O)cc(O)cc3O2)cc1 (stereo not shown) [RA2, 4-(5,7-dihydroxy-4-oxochroman-2-yl)phenyl 5-(1,2-dithiolan-3-yl)pentanoate]	58 µM	77%	–
OC[C@H]1O[C@@H](Oc2ccc(O)cc2)[C@H](O)[C@@H](O)[C@@H]1O [Arbutin, reference compound]	266 µM	36%	–
O=C(CCCCC1CCSS1)Oc1ccc(C2CC(=O)c3c(O)cc(OC(=O)CCCCC4CCSS4)cc3O2)cc1 (stereo not shown) [RA3, 4-(7-((5-(1,2-dithiolan-3-yl)pentanoyl)oxy)-5-hydroxy-4-oxochroman-2-yl)phenyl 5-(1,2-dithiolan-3-yl)pentanoate]	133 µM	12.4%	–
O=c1cc(CO)occ1O [Kojic acid, reference compound]	–	28%	–
O=C(O)CCCC[C@@H]1CCSS1 (racemic) [Lipoic acid]	44 µM	66.8%	total antioxidant capacity ([2]; 0.25 and 25 ummol/L): no antioxidant effect; total antioxidant capacity ([2]; high concentrations of 125 and 1250 ummol/L): great antioxidant capacity; protective effect on brain cells (apoptosis, % LDH release) [3]: hardly showed a protective effect
O=C(CCCCC1CCSS1)Oc1cc(O)c2c(c1)OC(c1ccc(O)cc1)CC2=O (stereo not shown) [RA1, 5-hydroxy-2-(4-hydroxyphenyl)-4-oxochroman-7-yl 5-(1,2-dithiolan-3-yl)pentanoate]	32 µM	–	total antioxidant capacity ([2]; 2.5 to 1250 ummol/L): strong protective effect; size of the cerebral infarction site compared to the vehicle (cerebral infarction site): significantly reduced; size of the cerebral infarction site, dependence on concentration (cerebral infarction site): reduced the size of the cerebral infarction site depending on a concentration; effective concentration, times lower than naringenin (10 mg/kg) (cerebral infarction site; RA1 1×10^−3 mg/kg against naringenin 10 mg/kg): 10,000 times; size of the cerebral infarction site (cerebral infarction site; RA1 at 1×10^−3 mg/kg): strongly reduced; protective effect on brain cells, times stronger than naringenin or lipoic acid (cerebral infarction site; animal brain infarction model, very low concentration): ~10,000 times; strength of protective effect on brain cells at a very low concentration ([3]; FIG. 1D, comparison with lipoic acid and naringenin): about 100 times; protective effect on brain cells (apoptosis, % LDH release) [3]: very strong protective effect
O=C(CCCCC1CCSS1)OCCOCCOc1cc(O)c2c(c1)OC(c1ccc(O)cc1)CC2=O (stereo not shown) [RA5, 2-(2-((5-hydroxy-2-(4-hydroxyphenyl)-4-oxochroman-7-yl)oxy)ethoxy) ethyl 5-(1,2-dithiolan-3-yl)pentanoate]	225 µM	28.5%	–
O=C(CCCCC1CCSS1)OCCOCCOCCOCCOCCOCCOc1cc(O)c2c(c1)OC(c1ccc(O)cc1)CC2=O (stereo not shown) [RA9, 17-((5-hydroxy-2-(4-hydroxyphenyl)-4-oxochroman-7-yl)oxy)-3,6,9,12,15-pentaoxaheptadecyl 5-(1,2-dithiolan-3-yl)pentanoate]	> 350 µM	24%	–
O=C(CCCCC1CCSS1)OCCOCCOCCOCCOCCOc1cc(O)c2c(c1)OC(c1ccc(O)cc1)CC2=O (stereo not shown) [RA8, 14-((5-hydroxy-2-(4-hydroxyphenyl)-4-oxochroman-7-yl)oxy)-3,6,9,12-tetraoxatetradecyl 5-(1,2-dithiolan-3-yl)pentanoate]	> 350 µM	11.5%	–
O=C1C[C@@H](c2ccc(O)cc2)Oc2cc(O)cc(O)c21 [Naringenin]	82 µM	58.5%	size of the cerebral infarction site compared to the vehicle (cerebral infarction site): significantly reduced; size of the cerebral infarction site, dependence on concentration (cerebral infarction site): reduced the size of the cerebral infarction site depending on a concentration; protective effect on brain cells (apoptosis, % LDH release) [3]: slight effect at one concentration
O=C(CCCCC1CCSS1)OCCOCCOCCOCCOc1cc(O)c2c(c1)OC(c1ccc(O)cc1)CC2=O (stereo not shown) [RA7, 2-(2-(2-(2-((5-hydroxy-2-(4-hydroxyphenyl)-4-oxochroman-7-yl)oxy)ethoxy)ethoxy)ethoxy)ethyl 5-(1,2-dithiolan-3-yl)pentanoate]	> 350 µM	–	–
O=C(CCCCC1CCSS1)OCCOc1cc(O)c2c(c1)OC(c1ccc(O)cc1)CC2=O (stereo not shown) [RA4, 2-((5-hydroxy-2-(4-hydroxyphenyl)-4-oxochroman-7-yl)oxy)ethyl 5-(1,2-dithiolan-3-yl)pentanoate]	260 µM	22%	–
